The values that follow come from ChEMBL document CHEMBL4765241, “Identification and Preclinical Pharmacology of ((1 R,3 S)-1-Amino-3-(( S)-6-(2-methoxyphenethyl)-5,6,7,8-tetrahydronaphthalen-2-yl)cyclopentyl)methanol (BMS-986166): A Differentiated Sphingosine-1-phosphate Receptor 1 (S1P) Modulator Advanced into Clinical Trials” (J Med Chem, 2019).

The structures appear in SMILES notation. Active and inactive are the calls of the source. No cut-off for these calls is given here.

Data set [1] can be described thus: Pulmonary toxicity in Lewis rat assessed as elevation of BAL protein level at 1 mg/kg by advia1800 chemistry analyzer. The following applies: in vivo. It is filed as organism-based.
A short description of data set [2]: Cardiotoxicity in human iPSC derived cardiomyocytes assessed as reduction in beating rate at 1 nM measured over 2 hrs by multi-electrode array relative to control. It counts as toxicity, cell-based. Also noted: scale not given: the % may be the effect or the level left. Particulars: stem cell-derived cardiomyocyte, 0.001 µM.
The nature of data set [3]: Cardiotoxicity in human iPSC derived cardiomyocytes assessed as reduction in beating rate at 10 nM measured over 2 hrs by multi-electrode array relative to control. It is filed as toxicity, cell-based. Also noted: scale not given: the % may be the effect or the level left. The following applies: stem cell-derived cardiomyocyte, 0.01 µM.
Data set [4] addresses Sphingosine 1-phosphate receptor 3 (Homo sapiens, UniProt Q99500). Briefly: Agonist activity at human recombinant S1P3 expressed in CHO cell membranes assessed as stimulation of [35S]-GTPgammaS binding measured after 45 mins by liquid scintillation counting assay. The arrangement: species or system Cell membrane. A general note: GTPγS is a poorly hydrolysed GTP analogue; its binding reports G protein activation.

Data set [5] has as its target T1, Sphingosine 1-phosphate receptor 4 (Homo sapiens, UniProt O95977).
T1 sequence (O95977 whole entry): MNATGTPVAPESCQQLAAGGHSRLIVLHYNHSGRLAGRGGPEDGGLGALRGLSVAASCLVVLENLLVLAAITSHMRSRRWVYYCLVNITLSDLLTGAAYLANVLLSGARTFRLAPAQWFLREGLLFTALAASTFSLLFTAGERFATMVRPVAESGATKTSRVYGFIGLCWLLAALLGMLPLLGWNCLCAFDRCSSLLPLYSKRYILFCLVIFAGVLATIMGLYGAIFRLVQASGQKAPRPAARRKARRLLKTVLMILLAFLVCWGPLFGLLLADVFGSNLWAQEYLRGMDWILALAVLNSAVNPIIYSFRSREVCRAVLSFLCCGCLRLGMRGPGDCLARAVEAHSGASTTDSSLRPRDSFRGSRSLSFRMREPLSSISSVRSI
Put plainly: Agonist activity at human recombinant S1P4 expressed in CHO cell membranes assessed as stimulation of [35S]-GTPgammaS binding measured after 45 mins by liquid scintillation counting assay. It counts as functional, Cell membrane.

The nature of data set [6]: Antimigratory activity against human T cells assessed as inhibition of S1P-induced T cell migration preincubated for 10 mins followed by addition of S1P measured after 120 mins by calcein-AM dye based fluorescence analysis. It is filed as functional.
The nature of data set [7]: Tmax in Sprague-Dawley rat at 1 mg/kg, po or 1 mg/kg, iv. It is filed as ADME, organism-based. The following applies: in vivo.
The nature of data set [8]: Tmax in Beagle dog at 0.3 mg/kg, po or 1 mg/kg, iv. It counts as ADME, organism-based, Canis lupus familiaris. Particulars: in vivo.
Data set [9] is described as follows: Tmax in cynomolgus monkey at 1 mg/kg, po or 1 mg/kg, iv. It counts as ADME, organism-based, Macaca fascicularis. Particulars: in vivo.
Data set [10] relates to Cerebellar cortex. Put plainly: Induction of remyelination in lysophosphatidylcholine-induced demyelination in wild-type CD1 mouse organotypic cerebellar slice at 0.01 to 10 nM incubated for 7 days by immunohistochemistry based three-dimensional brain cell culture assay. It is filed as functional, tissue-based. Particulars: dose 0.01-10 nM, time 7.0 day.
Data set [11] relates to Cerebellar cortex. Put plainly: Induction of remyelination in lysophosphatidylcholine-induced demyelination in wild-type CD1 mouse organotypic cerebellar slice assessed as myelination index at 0.01 to 10 nM incubated for 7 days by immunohistochemistry based three-dimensional brain cell culture assay (reference value: 50%). It counts as functional. The following applies: dose 0.01-10 nM, time 7 day.

Data set [12] relates to Mus musculus. Briefly: Reduction in circulating lymphocytes in Balb/c mouse blood at 0.5 mg/kg, po measured at 4 hrs by hematology analyzer based analysis. It counts as functional. The arrangement: scale not given: the % may be the effect or the level left.
For data set [13], the system named is Mus musculus. Put plainly: Reduction in circulating lymphocytes in Balb/c mouse blood at 30 mg/kg, po measured at 4 hrs by hematology analyzer based analysis. The arrangement: scale not given: the % may be the effect or the level left. It counts as functional.
Data set [14] concerns Mus musculus. Put plainly: Reduction in circulating lymphocytes in Balb/c mouse blood at 0.5 mg/kg, po measured at 24 hrs by hematology analyzer based analysis. The arrangement: scale not given: the % may be the effect or the level left. It counts as functional.
Data set [15] has as its system Mus musculus. Briefly: Reduction in circulating lymphocytes in Balb/c mouse blood at 30 mg/kg, po measured at 24 hrs by hematology analyzer based analysis. The arrangement: scale not given: the % may be the effect or the level left. It is filed as functional.
Data set [16] in a line: Drug metabolism in Balb/c mouse blood assessed as concentration of parent compound at 0.5 mg/kg, po measured at 4 hrs by LC-MS/MS analysis. Particulars: in vivo, BLD = below limit of detection. It is filed as ADME, organism-based.
Data set [17] is described as follows: Drug metabolism in Balb/c mouse blood assessed as concentration of parent compound at 30 mg/kg, po measured at 4 hrs by LC-MS/MS analysis. It counts as ADME, organism-based. The following applies: Balb/c, blood, read-out: Ct.
A short description of data set [18]: Drug metabolism in Balb/c mouse blood assessed as concentration of phosphate ester metabolite at 0.5 mg/kg, po measured at 4 hrs by LC-MS/MS analysis. It counts as ADME, organism-based. The following applies: in vivo, BLD = below limit of detection.
Data set [19] in a line: Drug metabolism in Balb/c mouse blood assessed as phosphate ester metabolite formation at 30 mg/kg, po measured at 4 hrs by LC-MS/MS analysis. The following applies: in vivo. It counts as ADME, organism-based.
Data set [20] is described as follows: Drug metabolism in Balb/c mouse blood assessed as concentration of parent compound at 0.5 mg/kg, po measured at 24 hrs by LC-MS/MS analysis. It counts as ADME, organism-based. Particulars: read-out: Ct.
A short description of data set [21]: Drug metabolism in Balb/c mouse blood assessed as concentration of parent compound at 30 mg/kg, po measured at 24 hrs by LC-MS/MS analysis. The following applies: Balb/c, blood, read-out: Ct. It is filed as ADME, organism-based.
Data set [22] is described as follows: Drug metabolism in Balb/c mouse blood assessed as concentration of phosphate ester metabolite formation at 0.5 mg/kg, po measured at 24 hrs by LC-MS/MS analysis. It is filed as ADME, organism-based. Particulars: in vivo.
Data set [23] is described as follows: Drug metabolism in Balb/c mouse blood assessed as concentration of phosphate ester metabolite formation at 30 mg/kg, po measured at 24 hrs by LC-MS/MS analysis. It is filed as ADME, organism-based. The following applies: in vivo.
Data set [24] can be described thus: Ratio of drug metabolism in Balb/c mouse blood assessed as phosphate ester metabolite to parent drug at 0.5 mg/kg, po measured at 24 hrs by LC-MS/MS analysis. It is filed as ADME, organism-based. The following applies: in vivo.
Data set [25] is described as follows: Ratio of drug metabolism in Balb/c mouse blood assessed as phosphate ester metabolite to parent drug at 30 mg/kg, po measured at 24 hrs by LC-MS/MS analysis. It is filed as ADME, organism-based. The following applies: in vivo.
The test system of data set [26] is Rattus norvegicus. Put plainly: Reduction in circulating lymphocytes in Lewis rat blood at 3 mg/kg, po measured at 4 hrs by hematology analyzer based analysis. It is filed as functional. The arrangement: scale not given: the % may be the effect or the level left.
Data set [27] in a line: Drug metabolism in Lewis rat blood assessed as concentration of parent compound at 3 mg/kg, po measured at 4 hrs by LC-MS/MS analysis. It is filed as ADME, organism-based. Particulars: read-out: Ct.
Data set [28] relates to Rattus norvegicus. Briefly: Reduction in circulating lymphocytes in Lewis rat blood at 3 mg/kg, po measured at 24 hrs by hematology analyzer based analysis. It counts as functional. Also noted: scale not given: the % may be the effect or the level left.
Data set [29] in a line: Drug metabolism in Lewis rat blood assessed as concentration of parent compound at 3 mg/kg, po measured at 24 hrs by LC-MS/MS analysis.
Data set [30] can be described thus: Half-life in Lewis rat at 3 mg/kg, po measured over 72 hrs by LC-MS/MS analysis. The following applies: in vivo. It is filed as ADME, organism-based.
A short description of data set [31]: Ratio of drug metabolism in Lewis rat blood assessed as phosphate ester metabolite to parent drug at 3 mg/kg, po measured at 24 hrs by LC-MS/MS analysis. It counts as ADME, organism-based. Particulars: in vivo.
Data set [32] can be described thus: Terminal half-life in Sprague-Dawley rat at 1 mg/kg, iv. Particulars: in vivo, read-out: beta t1/2 (converted). It counts as ADME, organism-based.
Data set [33] is described as follows: Terminal half-life in beagle dog at 1 mg/kg, iv. Particulars: in vivo, read-out: beta t1/2 (converted). It counts as ADME, organism-based, Canis lupus familiaris.
The nature of data set [34]: Terminal half-life in cynomolgus monkey at 1 mg/kg, iv. It is filed as ADME, organism-based, Macaca fascicularis. Particulars: in vivo, read-out: beta t1/2 (converted).
Data set [35] is described as follows: AUC ratio in orally dosed Sprague-Dawley rat blood assessed as phosphate metabolite to parent compound. Particulars: in vivo, po. It is filed as ADME, organism-based.
A short description of data set [36]: AUC ratio in orally dosed Beagle dog blood assessed as phosphate metabolite to parent compound. It is filed as ADME, organism-based, Canis lupus familiaris. Particulars: in vivo, po.
A short description of data set [37]: AUC ratio in orally dosed cynomolgus monkey blood assessed as phosphate metabolite to parent compound. Particulars: in vivo, po. It is filed as ADME, organism-based, Macaca fascicularis.
For data set [38], the system named is Rattus norvegicus. Briefly: Drug metabolism in Lewis rat blood assessed as concentration of phosphate ester metabolite formation at 3 mg/kg, po measured at 4 hrs by LC-MS/MS analysis. The following applies: in vivo.
Data set [39] is described as follows: Pulmonary toxicity in Lewis rat assessed as elevation of BAL protein level at 3 mg/kg by advia1800 chemistry analyzer. It counts as organism-based. The following applies: in vivo.
The test system of data set [40] is Rattus norvegicus. Briefly: Reduction in circulating lymphocytes in Lewis rat blood assessed as effective dose after oral dosing measured at 24 hrs by hematology analyzer based analysis. It counts as functional.
Data set [41] can be described thus: AUC ratio in orally dosed human blood assessed as phosphate metabolite to parent compound. The following applies: po. It is filed as ADME, organism-based.
For data set [42], the system named is Mus musculus. Briefly: Immunosuppressive activity in MOG (35 to 55 residues)/pertussis toxin-induced experimental autoimmune encephalomyelitis C57BL/6 mouse model assessed as reduction in formation of inflammatory lesions in CNS at 1 mg/kg, po QD starting from day 1 post immunization and measured thrice weekly until day 24. It is filed as functional, organism-based.

A word on the EC50: it is the concentration at which the effect is half-maximal. One may read the IC50 as the concentration at which inhibition is half-maximal. The Tmax is the time at which the peak concentration occurs. As a reminder, the ED50 is the dose at which the effect has come halfway, by size or by number of responders.

Chain of Sphingosine 1-phosphate receptor 3 (Q99500 whole entry): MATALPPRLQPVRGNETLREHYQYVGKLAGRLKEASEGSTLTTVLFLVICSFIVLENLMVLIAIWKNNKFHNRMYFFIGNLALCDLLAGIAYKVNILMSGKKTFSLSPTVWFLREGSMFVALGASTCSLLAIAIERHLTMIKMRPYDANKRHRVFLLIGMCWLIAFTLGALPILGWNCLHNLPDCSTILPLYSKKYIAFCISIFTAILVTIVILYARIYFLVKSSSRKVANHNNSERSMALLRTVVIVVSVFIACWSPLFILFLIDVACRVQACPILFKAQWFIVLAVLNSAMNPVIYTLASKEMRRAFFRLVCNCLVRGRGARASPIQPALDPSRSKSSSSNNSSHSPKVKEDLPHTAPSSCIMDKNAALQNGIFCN

On to `O=C(O)C[C@H]1CCCN(C[C@@H](O)c2ccc(-c3noc(-c4onc(-c5ccccc5)c4C(F)(F)F)n3)cc2)C1`, for which the values for the Activity in [1], in [2] and in [3] were 24.3 mg/dL, 36% and 57%, respectively.
As for `COc1ccccc1CC[C@@H]1CCc2cc([C@H]3CC[C@](N)(COP(=O)(O)O)C3)ccc2C1`, the Activity was 11% in data set [2], 27% in data set [3] and 100% in the data set with Cerebellar cortex [11]. In addition, the EC50 in data set [4] is > 1000 nM; in data set [5] it was 3.4 nM. In [6], the half-maximal inhibitory concentration (IC50) is 0.6 nM. Further, the Tmax in data set [7], in data set [8] and in data set [9] was 6 h each time. Moreover, in the data set with Cerebellar cortex [10], the result was Active.
Regarding `CCCCCC[C@@H]1CCc2cc([C@H]3CC[C@](N)(CO)C3)ccc2C1` [BMS-986104], the Activity in the data set with Mus musculus [12] came to 17%; with Mus musculus [13] it was 88%; in the data set on Mus musculus [14], 73%; in the data set with Mus musculus [15] it was 90%; in the data set on Rattus norvegicus [26], 48%; in the data set on Rattus norvegicus [28], 82%. Moreover, the Ct result in data set [16] is “Bld”; in data set [29], 160 nM. In addition, the concentration at 4 h in [17] amounted to 1000 nM; in data set [27], 130 nM. Besides, the Drug metabolism entry in data set [18] is “Bld”; in data set [19] it was 150 nM; in [22] it was 20 nM; in [23] it was 620 nM; in the data set with Rattus norvegicus [38], 90 nM. Further, the concentration at 24 h came out at 19 nM in data set [20] and 1200 nM in [21]. In addition, the values for the Ratio in [24], in [25] and in data set [31] were 1, 0.5 and 1.6, respectively. Further, the half-life is > 75 h in [30], 131 h in data set [32], 131 h in [33] and 131 h in data set [34]. Further, the “Ratio AUC” value in data set [35] is reported as 2.5; in [36], 2.4; in [37], 0.3.
`CCCCCCCCc1ccc(CCC(N)(CO)CO)cc1` [FINGOLIMOD]: the Activity in [39] was 12.5 mg/dL. Also, the median effective dose (ED50) with Rattus norvegicus [40] is 0.1 mg/kg. Moreover, the “Ratio AUC” value in data set [35] is listed as 5.6; in data set [36] it was 3.7; in data set [37], 5.9; in data set [41], 0.42. In addition, the result in the data set with Mus musculus [42] was Active.
